# Laboratory results: US6667153B1 (priority 2000, dated 2003)
# Read-outs that look alike come from different tables or passages of the source.
# Legend:
# [1] = tested on: arg-3 marker in E. coli strain GW2100/pTJgfp; details: for Mean revertant colony numbers: 37 parallel cultures, 4 day plate incubation
# [2] = tested on: E. coli GW2100/pTJgfp (umuC'::gfp); details: nutrient broth, FIG. 3
# [3] = tested on: E. coli GW2100/pTJgfp (umuC'-gfp fusion); details: for Mean fluorescence emission: 24 hours incubation
structure (smiles),measurement,setting,value
"COS(C)(=O)=O [MMS, methylmethane sulphonate]","K.S statistic, revertant colony numbers, mutagen versus the control",[1]; MMS 13 μg/ml,2.711
same,Mean revertant colony numbers,[1]; MMS 13 μg/ml,8.84
same,mutagenicity through change in culture to culture variation in mutant numbers (mean unchanged),"[1]; MMS 13 μg/ml, FIG. 8",mutagenicity is still detectable
same,"K.S statistic, revertant colony numbers, mutagen versus the control",[1]; MMS 325 μg/ml,3.889
same,Mean revertant colony numbers,[1]; MMS 325 μg/ml,17.95
same,response in mean number of revertant colonies per culture sample,"[1]; MMS 325 μg/ml, FIG. 8",clearly positive result
same,fluorescence level compared with the 0 dose control,[2]; MMS 13 μg/ml,no significant difference
same,fluorescence level (cellular toxicity),[2]; MMS 1300 μg/ml,lower level of fluorescence
same,fluorescence level compared with the 0 dose control,[2]; MMS 325 and 650 μg/ml,dose-dependent manner
same,"K.S statistic, fluorescence emission, mutagen versus the control",[3]; MMS 13 μg/ml,3.09
same,Mean fluorescence emission,"[3]; MMS 13 μg/ml, 84 parallel cultures",13.22
same,"K.S statistic, fluorescence emission, mutagen versus the control",[3]; MMS 325 μg/ml,6.48
same,Mean fluorescence emission,"[3]; MMS 325 μg/ml, 84 parallel cultures",36.5
same,mutagenic activity by shift in mean fluorescent output per culture,"[3]; MMS 325 μg/ml, 84 parallel cultures, FIG. 10",pronounced
